Reference: PMC6356581, “Fragment-Based Structural Optimization of a Natural Product Itampolin A as a p38α Inhibitor for Lung Cancer” (Marine Drugs, 2019)

Assays:
MAPK14/p38α = MAPK14/p38α (Homo sapiens, UniProt Q16539); test: p38α MAP kinase activity based on the rate of phosphorylation of ATF-2 (TR-FRET); assay type: biochemical; settings: 90 μM ATP, 0.4 μM GFP-ATF2 (19–96), 1 ng/mL MAPK14/p38α, 1 h RT; read-out: p38α MAP kinase inhibitory activity IC50
Description: 4.3. The p38α MAP Kinase Activity Based on the Rate of Phosphorylation of ATF-2
Kinase reaction buffer composition: 50 mM HEPES (pH 7.5), 10 mM MgCl2, 0.01% BRIJ-35 and 1 mM EGTA. Titration MAPK14/p38α at 90 μM ATP: Prepare MAPK14/p38α in kinase buffer at a concentration of 500 ng/mL. Perform two-fold serial dilution using kinase buffer from 500 ng/mL, 16 dose points. Add 5 μL of the serially diluted MAPK14/p38α into the 384-well plate in triplicate. Prepare 1 mL of 0.8 μM substrate GFP-ATF2 (19–96) and 180 μMATP in kinase reaction buffer. The reaction was carried out by adding 5 μL of the substrate GFP-ATF2 (19–96) and ATP solution into each well of the assay plate. Seal the assay plate and incubate for 1 h at room temperature (RT).
An amount of 4 μL MAPK14/p38α was added to each well of the 384-well assay plate. Incubate for 15 min at RT. Finally, 4 μL substrate GFP-ATF2 (19–96) and ATP in kinase reaction buffer were added to start the reaction. The final concentrations of MAPK14/p38α, Substrate, and ATP were 1 ng/mL, 0.4 μM, and 90 μM, respectively. Incubate for 1 h at RT. Add 10 μL/well of antibody solution. The final concentrations of EDTA and antibody were 10 mM and 2 nM respectively. Incubate for 30 min at RT.

[1] = tested on: non-small cell lung A549 cells; parameters: method as in doi:10.2174/1570179414666170215092631; settings: previous study; cited from earlier work
A549 cells = test: MTT cell proliferation inhibition assay; assay type: cell-based; settings: Homo sapiens; A549, 48 h incubation
Description: 4.4. MTT Assay The A549 cell lines were cultured using DMEM and RPMI, respectively, in standard humidified incubation conditions at 37 °C in 5% CO2. Then, the cancer cells (1000/well) were placed on 96-well plates in triplicate. After 24 h incubation, cells were treated with a series of concentrations of the brominated tyrosine derivatives (1, 10, 20, 80 μmol/L). The positive control contained the same concentrations of BIRB-796, and the negative control received the same volume of DMSO. After 48h incubation, cells were stained with 5% MTT, and the optical density was recorded at an absorbance wavelength of 570 nm.

[2] = tested on: non-small cell lung cancer; parameters: method as in doi:10.2174/1570179414666170215092631; settings: previous study; cited from earlier work

Chain of MAPK14/p38α (Q16539 whole entry): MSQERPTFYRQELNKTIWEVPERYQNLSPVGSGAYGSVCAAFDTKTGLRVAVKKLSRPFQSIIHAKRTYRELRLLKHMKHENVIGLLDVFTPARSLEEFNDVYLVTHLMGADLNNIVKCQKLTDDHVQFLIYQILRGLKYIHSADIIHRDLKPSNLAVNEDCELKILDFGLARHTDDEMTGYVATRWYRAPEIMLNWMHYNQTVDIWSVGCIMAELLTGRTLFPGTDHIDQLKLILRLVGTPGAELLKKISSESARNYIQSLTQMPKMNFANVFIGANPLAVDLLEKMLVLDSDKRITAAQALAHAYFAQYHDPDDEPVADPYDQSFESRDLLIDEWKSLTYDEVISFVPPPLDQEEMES

Row | Compound | IC50 (MAPK14/p38α) [nM] | also measured
1 | COc1c(Br)cc(C[C@@H](NC(=O)Nc2ccccc2Cl)C(=O)NCCc2cc(Br)c(O)c(Br)c2)cc1Br [Compound 5j] | 448 ± 64.1 | –
2 | COc1c(Br)cc(C[C@@H](NC(=O)Nc2cccc(Cl)c2)C(=O)NCCc2cc(Br)c(O)c(Br)c2)cc1Br [Compound 5i] | 51.3 ± 4.5 | –
3 | CCCOc1ccc(NC(=O)N[C@H](Cc2cc(Br)c(OC)c(Br)c2)C(=O)NCCc2cc(Br)c(O)c(Br)c2)cc1 [Compound 5c] | 167 ± 23.9 | –
4 | COc1c(Br)cc(CCNC(=O)Nc2ccc(OC(C)C)cc2)cc1Br [Compound 6h] | 329 ± 44.2 | –
5 | COc1c(Br)cc(CCNC(=O)Nc2ccccc2Cl)cc1Br [Compound 6j] | 71.2 ± 4.5 | –
6 | COc1c(Br)cc(C[C@@H](NC(=O)Cc2ccc(Br)cc2)C(=O)NCCc2cc(Br)c(O)c(Br)c2)cc1Br [Compound 4k] | 832 ± 12.1 | –
7 | COc1c(Br)cc(C[C@@H](NC(=O)Cc2cccc(Cl)c2)C(=O)NCCc2cc(Br)c(O)c(Br)c2)cc1Br [Compound 4i] | 91 ± 11.1 | –
8 | COc1c(Br)cc(C[C@@H](NC(=O)Nc2ccc(C)cc2)C(=O)NCCc2cc(Br)c(O)c(Br)c2)cc1Br [Compound 5n] | 279 ± 28.9 | –
9 | COc1c(Br)cc(C[C@@H](NC(=O)Cc2ccc(OCCCNC(C)=O)cc2)C(=O)NCCc2cc(Br)c(O)c(Br)c2)cc1Br [(−)-itampolin A] | – | inhibitory activity against non-small cell lung A549 cells [1]: significant inhibitory activity
10 | CCOc1ccc(CC(=O)N[C@H](Cc2cc(Br)c(OC)c(Br)c2)C(=O)NCCc2cc(Br)c(O)c(Br)c2)cc1 [Compound 4b] | 492 ± 46.2 | –
11 | COc1c(Br)cc(CC(NC(=O)Nc2ccc(OCCCN3CCOCC3)cc2)C(=O)NCCc2cc(Br)c(O)c(Br)c2)cc1Br (stereo not shown) [Compound 5o] | 134 ± 26.3 | –
12 | COCCOc1ccc(NC(=O)NCCc2cc(Br)c(OC)c(Br)c2)cc1 [Compound 6g] | 11.7 ± 3 | –
13 | CCC(C)Oc1ccc(NC(=O)NCCc2cc(Br)c(OC)c(Br)c2)cc1 (stereo not shown) [Compound 6e] | 920.3 ± 6.1 | –
14 | COc1c(Br)cc(C[C@@H](NC(=O)Nc2ccccc2F)C(=O)NCCc2cc(Br)c(O)c(Br)c2)cc1Br [Compound 5m] | 71.4 ± 19.6 | –
15 | CCOc1ccc(NC(=O)NCCc2cc(Br)c(OC)c(Br)c2)cc1 [Compound 6b] | 221 ± 4.2 | –
16 | COc1c(Br)cc(CCNC(=O)Nc2ccccc2F)cc1Br [Compound 6m] | 13.6 ± 3 | –
17 | COc1c(Br)cc(CCNC(=O)Nc2ccc(OCCCN3CCOCC3)cc2)cc1Br [Compound 6o] | 7.9 ± 1.7 | IC50 (A549 cells): 660 nM

Row | Compound | IC50 (MAPK14/p38α) [nM] | also measured
18 | CCCCOc1ccc(CC(=O)N[C@H](Cc2cc(Br)c(OC)c(Br)c2)C(=O)NCCc2cc(Br)c(O)c(Br)c2)cc1 [Compound 4d] | 806 ± 139 | –
19 | COc1c(Br)cc(C[C@@H](NC(=O)Nc2ccc(F)cc2)C(=O)NCCc2cc(Br)c(O)c(Br)c2)cc1Br [Compound 5l] | 110 ± 18.8 | –
20 | COc1c(Br)cc(CCNC(=O)Nc2ccc(Br)cc2)cc1Br [Compound 6k] | 169 ± 2.6 | –
21 | COc1c(Br)cc(CCNC(=O)Nc2ccc(C)cc2)cc1Br [Compound 6n] | 300 ± 11.7 | –
22 | COc1ccc(NC(=O)N[C@H](Cc2cc(Br)c(OC)c(Br)c2)C(=O)NCCc2cc(Br)c(O)c(Br)c2)cc1 [Compound 5a] | 112 ± 12 | –
23 | CCCCOc1ccc(NC(=O)N[C@H](Cc2cc(Br)c(OC)c(Br)c2)C(=O)NCCc2cc(Br)c(O)c(Br)c2)cc1 [Compound 5d] | 691 ± 38.4 | –
24 | COc1c(Br)cc(C[C@@H](NC(=O)Nc2ccc(Br)cc2)C(=O)NCCc2cc(Br)c(O)c(Br)c2)cc1Br [Compound 5k] | 90.3 ± 2.7 | –
25 | COc1c(Br)cc(CCNC(=O)Nc2ccc(F)cc2)cc1Br [Compound 6l] | 21.5 ± 4.6 | –
26 | CCCOc1ccc(NC(=O)NCCc2cc(Br)c(OC)c(Br)c2)cc1 [Compound 6c] | 701 ± 7.4 | –
27 | COc1c(Br)cc(C[C@@H](NC(=O)Cc2ccccc2F)C(=O)NCCc2cc(Br)c(O)c(Br)c2)cc1Br [Compound 4m] | 78.6 ± 59.2 | –
28 | COc1ccc(NC(=O)NCCc2cc(Br)c(OC)c(Br)c2)cc1 [Compound 6a] | 263 ± 3.3 | –
29 | CCOc1ccc(NC(=O)N[C@H](Cc2cc(Br)c(OC)c(Br)c2)C(=O)NCCc2cc(Br)c(O)c(Br)c2)cc1 [Compound 5b] | 346 ± 18.4 | –
30 | COc1c(Br)cc(C[C@@H](NC(=O)Cc2ccc(F)cc2)C(=O)NCCc2cc(Br)c(O)c(Br)c2)cc1Br [Compound 4l] | 618 ± 87.7 | –
31 | COc1c(Br)cc(CCNC(=O)Nc2cccc(Cl)c2)cc1Br [Compound 6i] | 17.5 ± 2.4 | –
32 | COc1c(Br)cc(C[C@@H](NC(=O)Cc2ccc(OCCCNC(C)=O)cc2)C(=O)NCCc2cc(Br)c(O)c(Br)c2)cc1Br [Itampolin A] | – | antitumor activity against non-small cell lung cancer [2]: potent concentration-dependent antitumor activity
33 | COc1c(Br)cc(C[C@@H](NC(=O)Cc2ccc(OCCCN3CCOCC3)cc2)C(=O)NCCc2cc(Br)c(O)c(Br)c2)cc1Br [Compound 4o] | 138 ± 13.6 | –
